Measurements as given in patent US11292807B2 (OCEANS LTD., priority 2015, dated 2022).
Where two headings read alike, the source gives them in different places.

Legend:
MDA-MB [1] = conditions: MDA-MB
PC3 = test: CIMA assay, cell viability, PC3; conditions: for Fold change in viability AVG: PC3
MDA-MB [2] = test: cells; conditions: Homo sapiens, read-out: Average cell viability, MDA-MB
[3] = test system: U373 (glioblastoma-astrocytoma); test: CIMA assay, cell viability, U373; conditions: for Fold change in viability AVG: U373
Protocol: (§1) Stock solutions of the extracts were prepared in dimethylsulfoxide (DMSO) at 10 mg/mL and stored in 200 μl aliquots at −20° C. until analysis. This preparation ensured that the DMSO delivered to cells in culture never exceeded 1%.
(§2) Prepared extracts were assessed following chronic exposure conditions in which cells were seeded at 2×10^3 cells/well (96 well-plate) and incubated with test compounds for 72 h. Each compound was evaluated over a range of concentrations (0, 10, 25, 50 or 100 μg/ml). Cell proliferation was initially assessed using a standard colorimetric indicator of metabolic activity (CIMA) assay. In this assay, tetrazole reduction was evaluated as a measure of metabolic function that evaluates mitochondrial activity to determine the extent of cell proliferation within a culture. This assay is based on the reduction of yellow tetrazolium salt to purple formazan by mitochondrial reductases enzyme in viable cells, resulting in a color changed that confers a change in absorbance.

A549 (lung carcinoma) = test: CIMA assay (colorimetric indicator of metabolic activity), cell viability, A549; conditions: for Fold change in viability AVG: A549
[4] = test system: THP-1 (acute monocytic leukemia); test: CIMA assay, cell viability, THP-1; conditions: for Fold change in viability AVG: THP-1
[5] = CIMA assay, cell viability, CCD1079SK; conditions: human, Average cell viability, CCD
Protocol: as §1, §2

[6] = test system: CCD1079SK (fibroblast, noncancerous but proliferating); test: CIMA assay, cell viability, CCD1079SK; conditions: CCD
Protocol: as §1, §2

[7] = test system: SKOV3 (ovarian adenocarcinoma); test: CIMA assay, cell viability, SKOV3; conditions: for Fold change in viability AVG: SKOV
Protocol: as §1, §2

SMILES: CC/C=C\C/C=C\C/C=C\C/C=C\C/C=C\CCCC(=O)OCC(O)COC1OC(CO)C(O)C(O)C1O (stereo not shown) [Compound 13, lyso-MGDG C20:5]
- MDA-MB AVG (MDA-MB [1]; sample at 1 ug/mL): 1.11
- MDA-MB AVG (MDA-MB [1]; sample at 10 ug/mL): 1.14
- MDA-MB AVG (MDA-MB [1]; sample at 50 ug/mL): 0.33
- MDA-MB AVG (MDA-MB [1]; sample at 100 ug/mL): 0.28
- Fold change in viability AVG (MDA-MB [1]; 1 ug/mL): 1.11
- Fold change in viability AVG (MDA-MB [1]; 10 ug/mL): 1.14
- Fold change in viability AVG (MDA-MB [1]; 50 ug/mL): 0.33
- Fold change in viability AVG (MDA-MB [1]; 100 ug/mL): 0.28
- viability at 1 µg/mL (PC3; Homo sapiens, PC-3, read-out: Average cell viability, PC3, 1 ug/mL): 104%
- viability at 10 µg/mL (PC3; Homo sapiens, PC-3, read-out: Average cell viability, PC3, 10 ug/mL): 97%
- viability at 50 µg/mL (PC3; Homo sapiens, PC-3, read-out: Average cell viability, PC3, 50 ug/mL): 16%
- viability at 100 µg/mL (PC3; Homo sapiens, PC-3, read-out: Average cell viability, PC3, 100 ug/mL): 12%
- PC3 AVG (PC3; PC3, sample at 1 ug/mL): 1.08
- PC3 AVG (PC3; PC3, sample at 10 ug/mL): 1.01
- PC3 AVG (PC3; PC3, sample at 50 ug/mL): 0.16
- PC3 AVG (PC3; PC3, sample at 100 ug/mL): 0.12
- Fold change in viability AVG (PC3; 1 ug/mL): 1.08
- Fold change in viability AVG (PC3; 10 ug/mL): 1.01
- Fold change in viability AVG (PC3; 50 ug/mL): 0.16
- Fold change in viability AVG (PC3; 100 ug/mL): 0.12
- viability at 1 µg/mL (MDA-MB [2]; 1 ug/mL): 102%
- viability at 10 µg/mL (MDA-MB [2]; 10 ug/mL): 105%
- viability at 50 µg/mL (MDA-MB [2]; 50 ug/mL): 30%
- viability at 100 µg/mL (MDA-MB [2]; 100 ug/mL): 25%
- viability at 1 µg/mL ([3]; Homo sapiens, U373 MG, read-out: Average cell viability, U373, 1 ug/mL): 111%
- viability at 10 µg/mL ([3]; Homo sapiens, U373 MG, read-out: Average cell viability, U373, 10 ug/mL): 100%
- viability at 50 µg/mL ([3]; Homo sapiens, U373 MG, read-out: Average cell viability, U373, 50 ug/mL): 7%
- viability at 100 µg/mL ([3]; Homo sapiens, U373 MG, read-out: Average cell viability, U373, 100 ug/mL): 6%
- U373 AVG ([3]; U373, sample at 1 ug/mL): 1.13
- U373 AVG ([3]; U373, sample at 10 ug/mL): 1.02
- U373 AVG ([3]; U373, sample at 50 ug/mL): 0.07
- U373 AVG ([3]; U373, sample at 100 ug/mL): 0.06
- Fold change in viability AVG ([3]; 1 ug/mL): 1.13
- Fold change in viability AVG ([3]; 10 ug/mL): 1.02
- Fold change in viability AVG ([3]; 50 ug/mL): 0.07
- Fold change in viability AVG ([3]; 100 ug/mL): 0.06
- A549 AVG (A549 (lung carcinoma); A549, sample at 1 ug/mL): 0.67
- A549 AVG (A549 (lung carcinoma); A549, sample at 10 ug/mL): 0.64
- A549 AVG (A549 (lung carcinoma); A549, sample at 50 ug/mL): 0.67
- A549 AVG (A549 (lung carcinoma); A549, sample at 100 ug/mL): 0.38
- Fold change in viability AVG (A549 (lung carcinoma); 1 ug/mL): 0.67
- Fold change in viability AVG (A549 (lung carcinoma); 10 ug/mL): 0.64
- Fold change in viability AVG (A549 (lung carcinoma); 50 ug/mL): 0.67
- Fold change in viability AVG (A549 (lung carcinoma); 100 ug/mL): 0.38
- viability at 1 µg/mL (A549 (lung carcinoma); Homo sapiens, A549, read-out: Average cell viability, A549, 1 ug/mL): 57%
- viability at 10 µg/mL (A549 (lung carcinoma); Homo sapiens, A549, read-out: Average cell viability, A549, 10 ug/mL): 55%
- viability at 50 µg/mL (A549 (lung carcinoma); Homo sapiens, A549, read-out: Average cell viability, A549, 50 ug/mL): 57%
- viability at 100 µg/mL (A549 (lung carcinoma); Homo sapiens, A549, read-out: Average cell viability, A549, 100 ug/mL): 32%
- viability at 1 µg/mL ([4]; Homo sapiens, THP-1, read-out: Average cell viability, THP-1, 1 ug/mL): 104%
- viability at 10 µg/mL ([4]; Homo sapiens, THP-1, read-out: Average cell viability, THP-1, 10 ug/mL): 101%
- viability at 50 µg/mL ([4]; Homo sapiens, THP-1, read-out: Average cell viability, THP-1, 50 ug/mL): 40%
- viability at 100 µg/mL ([4]; Homo sapiens, THP-1, read-out: Average cell viability, THP-1, 100 ug/mL): 27%
- THP-1 AVG ([4]; THP-1, sample at 1 ug/mL): 1.19
- THP-1 AVG ([4]; THP-1, sample at 10 ug/mL): 1.14
- THP-1 AVG ([4]; THP-1, sample at 50 ug/mL): 0.46
- THP-1 AVG ([4]; THP-1, sample at 100 ug/mL): 0.31
- Fold change in viability AVG ([4]; 1 ug/mL): 1.19
- Fold change in viability AVG ([4]; 10 ug/mL): 1.14
- Fold change in viability AVG ([4]; 50 ug/mL): 0.46
- Fold change in viability AVG ([4]; 100 ug/mL): 0.31
- viability at 72 h, 1 ug/mL ([5]; CCD1079SK fibroblast cells (noncancerous, proliferating), 1 ug/mL): 103%
- viability at 72 h, 10 ug/mL ([5]; CCD1079SK fibroblasts (noncancerous, proliferating), 10 ug/mL): 99%
- viability at 72 h, 50 ug/mL ([5]; CCD1079SK fibroblasts (noncancerous, proliferating), 50 ug/mL): 22%
- viability at 72 h, 100 ug/mL ([5]; CCD1079SK fibroblasts (noncancerous, proliferating), 100 ug/mL): 14%
- Fold change in viability AVG ([6]; 1 ug/mL): 1.13
- Fold change in viability AVG ([6]; 10 ug/mL): 1.09
- Fold change in viability AVG ([6]; 50 ug/mL): 0.24
- Fold change in viability AVG ([6]; 100 ug/mL): 0.15
- viability at 1 µg/mL ([7]; Homo sapiens, SK-OV-3, read-out: Average cell viability, SKOV, 1 ug/mL): 125%
- viability at 10 µg/mL ([7]; Homo sapiens, SK-OV-3, read-out: Average cell viability, SKOV, 10 ug/mL): 105%
- viability at 50 µg/mL ([7]; Homo sapiens, SK-OV-3, read-out: Average cell viability, SKOV, 50 ug/mL): 78%
- viability at 100 µg/mL ([7]; Homo sapiens, SK-OV-3, read-out: Average cell viability, SKOV, 100 ug/mL): 34%
- Fold change in viability AVG ([7]; 1 ug/mL): 1.34
- Fold change in viability AVG ([7]; 10 ug/mL): 1.13
- Fold change in viability AVG ([7]; 50 ug/mL): 0.84
- Fold change in viability AVG ([7]; 100 ug/mL): 0.37
